Source: PMC8596843, “Platinum Cyclooctadiene Complexes with Activity against Gram‐positive Bacteria” (Chemmedchem, 2021)

Columns and labels:
[1] = system: S. aureus ATCC 43300 MRSA; assay: MIC in the presence of human serum (serum reversal); type: cell-based, Staphylococcus aureus; settings: 50% serum
Description: (§1) To obtain some initial insight into the apparent disparity between in vitro and in vivo results, we repeated the MIC experiments against four selected Gram‐positive strains in the presence of 10 % or 50 % human serum (Table S3). Pt1 and Pt2 maintained some antibacterial activity against B. subtilis in the presence of 10 % serum, but a complete loss of activity was observed against MRSA and GISA (50 % serum), and VRE (10 % serum). […] Systemic administration is therefore unlikely to be a suitable administration route for this class of compounds unless an alternative formulation that can prevent serum binding (e. g. by lipid or nanoparticle encapsulation) can be found. […] Further in vivo studies should therefore focus on more suitable disease models. […]
(§2) Antibacterial minimum inhibitory concentration (MIC) assay
(§3) concentration. (in-house screening)
(§4) Bacto Laboratories 212322) at 37 °C overnight.
(§5) The resultant mid-log phase cultures were diluted
(§6) Gram-negative and Gram-positive bacteria, respectively.
(§7) final concentration range of 0.8 – 100 µM.
(§8) inhibitors as positive control. […]

[2] = system: S. aureus NRS 17 GISA; assay: as above; type: cell-based, Staphylococcus aureus; settings: 50% serum
Description: as §1, §2, §3, §4, §5, §6, §7, §8

[3] = system: E. faecium ATCC 51559 MDR, VRE; assay: as above; type: cell-based, Enterococcus faecium; settings: 10% serum
Description: as §1, §2, §3, §4, §5, §6, §7, §8

[4] = system: Escherichia coli ATCC 25922; assay: Antibacterial MIC assay; type: cell-based; settings: CO‐ADD screening
Protocol: (§9) All compounds submitted to CO‐ADD are initially screened against five bacterial strains (Staphylococcus aureus (MRSA), E. coli, Klebsiella pneumoniae, Pseudomonas aeruginosa, Acinetobacter baumannii) and two fungal strains (Candida albicans, Cryptococcus neoformans) at a single concentration (32 μg/mL or 20 μM) performed as a high‐throughput primary screening.[[11], [17a]] Any compounds that show significant growth inhibition against any of the tested strains at this step are then evaluated in a dose‐response assay against these same strains. […]
(§10) Smiles: C1C=CCCC(=CC1)C1=CCCC=CCC1.C[Pt]C.C[Pt]C […]
(§11) ATCC strains were sourced from the American Type Culture Collection and NRS strains from NARSA (Network on Antimicrobial Resistance in Staphylococcus aureus) via BEI Resources (www.beiresources.org), with clinical MSSA and MRSA isolates from Prof Graeme Nimmo, Queensland […]
(§12) Health Central Pathology. […]
as §2
(§13) Compound Assay Plate Preparation: Compounds were dissolved in DMSO at 10mM (CO-ADD screening) or 4 mM (follow up screening) and were plated in a 2-fold dose response from 20 to 0.156 µM or 200 to 0.006 µM respectively, with a maximum of 0.5% or 1% DMSO, final in the assay […]
(§14) plated in a 2-fold dose response from 200 to 0.006 µM, with a maximum of 1 % DMSO, final in the assay concentration. (in-house screening)
(§15) For all the bacterial assays, each strain was cultured in Cation-adjusted Mueller Hinton broth (CAMHB; Bacto Laboratories 212322) at 37 °C overnight. A sample of each culture was then diluted 40-fold in fresh CAMHB and incubated at 37 °C for 1.5–3 h. The resultant mid-log phase cultures were diluted with CAMHB (CFU mL−1 measured by OD600), then added to each well of the compound-containing plates (384-well non-binding surface (NBS) plates; Corning CLS3640), giving a cell density of 5 × 10^5 CFU mL−1 and a total volume of 50 μL. Plates were covered and incubated at 37 °C for 18 h without shaking. Inhibition of bacterial growth was determined measuring absorbance at 600 nm (OD600), using media only as negative control and bacteria without inhibitors as positive control. MIC values were determined as the lowest concentration at which the growth was inhibited at ≥80%. Colistin sulfate (Sigma C4461) and vancomycin HCl (Sigma 861987) were used as internal controls on each plate for Gram-negative and Gram-positive bacteria, respectively. […]

[5] = system: Pseudomonas aeruginosa ATCC 27853; assay: Antibacterial MIC assay; type: cell-based; settings: CO‐ADD screening
Protocol: as §9, §10, §11, §12, §2, §13, §14, §15

[6] = system: Acinetobacter baumannii ATCC 19606; assay: Antibacterial MIC assay; type: cell-based; settings: CO‐ADD screening
Protocol: as §9, §10, §11, §12, §2, §13, §14, §15

[7] = system: Staphylococcus aureus ATCC 43300 (MRSA); assay: microbe, parasite or virus in culture; type: cell-based
Protocol: as §9, §10, §11, §12, §2, §13, §14, §15

[8] = system: E. coli lpxC (non‐efficient lipid A production mutant); assay: MIC against E. coli membrane mutants; type: cell-based, Escherichia coli; settings: Table S2
Protocol: as §2, §3, §4, §5, §6, §7, §8

[9] = system: Staphylococcus aureus ATCC 25923, MSSA; assay: Antibacterial MIC assay, Gram-positive panel; type: cell-based; settings: Table S1 panel; n=4
Description: (§16) Bis(dimethyl-η4)-((1Z,1'E,5Z,5'E)-(1,1'-bi(cyclooctadiene))diplatinum(II) (Pt14) Smiles: C1C=CCCC(=CC1)C1=CCCC=CCC1.C[Pt]C.C[Pt]C
(§17) InChIKey: PHIWIZAHOBWKFJ-HPCBIOCFSA-N
(§18) Link to selected data that was repeated to approve the identity of the compounds: https://dx.doi.org/10.14272/PHIWIZAHOBWKFJ-HPCBIOCFSA-N.1
as §11, §12, §2, §13, §14, §15

[10] = system: Staphylococcus aureus VRS 1, VRSA (VanA); assay: Antibacterial MIC assay, Gram-positive panel; type: cell-based; settings: Table S1 panel; n=4
Description: as §16, §17, §18, §11, §12, §2, §13, §14, §15

[11] = system: Enterococcus faecium Clinical Isolate, VRE (VanA); assay: Antibacterial MIC assay, Gram-positive panel; type: cell-based; settings: Table S1 panel; n=4
Protocol: as §10, §11, §12, §2, §13, §14, §15

[12] = system: Enterococcus faecium ATCC 51559, MDR, VRE (VanA); assay: Antibacterial MIC assay, Gram-positive panel; type: cell-based; settings: Table S1 panel; n=2
Protocol: as §10, §11, §12, §2, §13, §14, §15

[13] = system: Enterococcus faecalis ATCC 29212, control strain; assay: Antibacterial MIC assay, Gram-positive panel; type: cell-based; settings: Table S1 panel; n=4
Protocol: as §10, §11, §12, §2, §13, §14, §15

[14] = system: Staphylococcus aureus NRS 17, GISA; assay: Antibacterial MIC assay, Gram-positive panel; type: cell-based; settings: Table S1 panel; n=2
Protocol: as §10, §11, §12, §2, §13, §14, §15

[15] = system: Staphylococcus epidermidis ATCC 14990, type strain; assay: Antibacterial MIC assay, Gram-positive panel; type: cell-based; settings: Table S1 panel; n=4
Protocol: as §10, §11, §12, §2, §13, §14, §15

[16] = system: Bacillus subtilis ATCC 6051, type strain; assay: Antibacterial MIC assay, Gram-positive panel; type: cell-based; settings: Table S1 panel; n=2
Protocol: as §10, §11, §12, §2, §13, §14, §15

[17] = system: Enterococcus faecium ATCC 35667, type strain; assay: Antibacterial MIC assay, Gram-positive panel; type: cell-based; settings: Table S1 panel; n=4
Protocol: as §10, §11, §12, §2, §13, §14, §15

[18] = system: Staphylococcus epidermidis NRS 60, VISE; assay: Antibacterial MIC assay, Gram-positive panel; type: cell-based; settings: Table S1 panel; n=4
Protocol: as §10, §11, §12, §2, §13, §14, §15

[19] = system: human red blood cells; assay: Haemolysis assay; type: cell-based; settings: for Haemolysis HC10: concentration inducing 10 % haemolysis; for Haemolysis HC50: concentration inducing 50 % haemolysis
Protocol: (§19) As part of the CO‐ADD screening, all compounds that show any activity against a microbial strain are evaluated for their cytotoxicity against human embryonic kidney cells (HEK‐293) and for haemolysis against human red blood cells. None of the compounds tested for cytotoxicity (Pt1‐9 and Pd1) caused any significant cell death up to concentrations of 100 μM. […] We have also observed higher IC50 values for the methylated complexes Pt3 and Pt4 against HeLa cells in previous work.[16]
as §5, §6, §7
(§20) inhibitors as positive control.
(§21) Tamoxifen (Sigma T5648) was used
(§22) as internal control on each plate.
in a Neubauer haemocytometer.
incubated for 1 h at 37 °C, without shaking.
HC10 and HC50 (concentration at which 10%
for top, bottom and slope using Prism 8. […]

[20] = system: HEK-293 ATCC CRL-1573 human embryonic kidney cells; type: cell-based
Protocol: as §19, with “work.[16] […]” for “work.[16]”
as §20, §21, §22
in a Neubauer haemocytometer. […]

[21] = system: Klebsiella pneumoniae ATCC 700603 (ESBL SHV‐18)
Protocol: as §9, §10, §11, §12, §2, §13, §14, §15

[22] = system: B. subtilis ATCC 6051 type strain; assay: MIC in the presence of human serum (serum reversal); type: cell-based, Bacillus subtilis; settings: 10% serum
Description: as §1, §2, §3, §4, §5, §6, §7, §8

[23] = system: Candida albicans ATCC 90028; assay: Antifungal MIC (CO-ADD screening); type: cell-based
Protocol: as §17
(§23) Health Central Pathology. Candida albicans (ATCC 90028, NCCLS 11), Cryptococcus neoformans
as §2, §3, §4

[24] = system: Cryptococcus neoformans H99 ATCC 208821; assay: Antifungal MIC (CO-ADD screening); type: cell-based
Protocol: as §17, §23, §2, §3, §4

[25] = system: Enterococcus faecalis Clinical Isolate, VRE (VanB); assay: Antibacterial MIC assay, Gram-positive panel; type: cell-based; settings: Table S1 panel; n=4
Protocol: as §10, §11, §12, §2, §13, §14, §15

Row | Structure (SMILES) | MIC in the presence of human serum [1] [µM] | MIC in the presence of human serum [2] [µM] | MIC in the presence of human serum [3] [µM] | MIC E. coli lpxC [8] [µM] | MIC [9] [µM] | MIC [10] [µM] | MIC [11] [µM] | MIC [12] [µM] | MIC [13] [µM] | MIC [15] [µM] | MIC [16] [µM] | MIC [17] [µM] | Haemolysis HC10 [19] [µM] | Haemolysis HC50 [19] [µM] | CC50 [20] [µM] | MIC in the presence of human serum [22] [µM] | also measured
1 | CC(C)C([O][Pt][Cl])/C1=C/CC/C=C\CC1 (centres unmarked) [Pt8] | > 200 | > 200 | > 200 | > 200 | 25 | 12.5 | 100 | 50 | 100 | 6.25 | 50 | 100 | >100 | >100 | > 100 | 200 | MIC Ec [4]: >20 µM; MIC Pa [5]: >20 µM; MIC Ab [6]: >20 µM; MIC Sa ([7]; CO‐ADD screening): >20 µM; MIC ([7]; Table S1 panel, n=2): 3.12 µM; MIC [14]: 50 µM; MIC [18]: 25 µM; MIC Kp [21]: >20 µM; MIC Ca [23]: 10 µM; MIC Cn [24]: 1.25 µM
2 | CC/C(=C(\c1ccccc1)c1ccc(OCCN(C)C)cc1)c1ccccc1 [Tamoxifen, reference compound] |  |  |  |  |  |  |  |  |  |  |  |  |  |  |  |  | HEK‐293 CC50 [20]: 34.75–30.55
3 | C1=C\CC/C=C\CC/1.[Cl][Pd][Cl] [Pd1] | > 200 | > 200 | > 200 | > 200 | 200 | > 200 | > 200 | 200 | > 200 | 100 | > 200 | > 200 | 7.76 | 10.14 | > 100 | > 200 | MIC [25]: > 200 µM
